For one test, the system named is MOLM-13 cells. The test can be described thus: MOLM-13 Cellular Assay. It is filed as cell-based. Conditions: Homo sapiens, 72 hours, cell viability by CellTiter-Glo. The procedure:
MOLM-13 cells were obtained from DSMZ and were maintained in RPMI 1640+Glutamax+25 mM HEPES (Invitrogen, catalog number 72400) supplemented with 10% heat inactivated fetal bovine serum (FBS; Invitrogen, catalog number 16140). The day prior to assay set-up, cells were pelleted, resuspended in fresh media, counted, and cells were plated at 0.4×10^6 cell/mL in a T150 flask. On the day of the assay, cells were pelleted, resuspend in fresh media, counted, and seeded at 5,000 cells/well in white opaque 96-well tissue culture treated microplates (Perkin Elmer, catalog number 6005680). Cells were exposed to different concentrations of test compounds at 37° C., 5% CO2 for 72 hours immediately after seeding. Cell viability was acquired on a Perkin Elmer Envision 2104 multilabel reader using the CellTiter-Glo assay (Promega) according to the manufacturer's instructions.
For orientation: ATP-based viability assays read luminescence as a measure of living cells.

The target of a further test is human DHODH (Homo sapiens (Human), UniProt Q02127). The test can be described thus: DHODH Enzymatic Assay. It is filed as biochemical. To be noted: purified human DHODH, DCIP absorbance, end-point mode. The procedure:
To detect DHODH enzyme activities, dichloroindophenol (DCIP) is added as the final electron acceptor in the assay. DCIP can accept electrons from the reduced coenzyme Q generated in the assay, or from dihydroorotate (DHO) via FMN by binding presumably to the ubiquinone pocket. […] The assay buffer contained […], pH 7.5, 150 mM NaCl, 0.5 mM EDTA, and 0.1% Triton X-100 in MilliQ water. Substrate consisting of 20 mM DHO, 5 mM CoQ6, and 1 mM DCIP in assay buffer, initiates the reaction. […] Absorbance measurements were obtained using the BMG Phera Star plate-reading spectrophotomer. Purified human DHODH was purchased from Proteros (cat. No. PR-0044). Chemicals were purchased from Sigma-Aldrich, Teknova, and Avanti Polar Lipids. Liquid handling was performed using Labcyte Echo and Formulatrix Tempest.

Sequence of human DHODH (Q02127 whole entry): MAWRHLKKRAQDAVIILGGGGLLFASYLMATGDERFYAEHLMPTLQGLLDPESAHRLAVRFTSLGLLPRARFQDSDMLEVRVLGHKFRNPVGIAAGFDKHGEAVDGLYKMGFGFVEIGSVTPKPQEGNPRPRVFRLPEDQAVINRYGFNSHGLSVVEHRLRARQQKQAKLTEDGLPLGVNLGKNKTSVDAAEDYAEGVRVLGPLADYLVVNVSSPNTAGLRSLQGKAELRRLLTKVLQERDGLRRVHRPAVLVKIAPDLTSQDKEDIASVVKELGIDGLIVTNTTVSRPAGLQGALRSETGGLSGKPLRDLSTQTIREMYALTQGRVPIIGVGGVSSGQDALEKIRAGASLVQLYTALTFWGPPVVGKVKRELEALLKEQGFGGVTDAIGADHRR

Broadly, the IC50 is the concentration that gives 50% inhibition. Turning to `CCn1c(CO)nn(-c2cc3c(cc2F)NC(c2ccccc2C)CC3C(C)C)c1=O` (racemic) [Example 13, Racemic 4-Ethyl-2-(7-fluoro-4-isopropyl-2-(o-tolyl)-1,2,3,4-tetrahydroquinolin-6-yl)-5-(hydroxymethyl)-2,4-dihydro-3H-1,2,4-triazol-3-one], the IC50 was determined as 20 nM in the test with MOLM-13 cells and 51.7 nM against human DHODH.
For `CCn1c(CO)nn(-c2cc3c(cc2F)C(O)C(c2ccccc2C)CN3C(C)C)c1=O` (racemic) [Example 14, Racemic 4-Ethyl-2-(6-fluoro-4-hydroxy-1-isopropyl-3-(o-tolyl)-1,2,3,4-tetrahydroquinolin-7-yl)-5-(hydroxymethyl)-2,4-dihydro-3H-1,2,4-triazol-3-one] the same measures were 4 nM and 5.62 nM.
Turning to `CCn1c(CO)nn(-c2cc3c(cc2F)C(=O)C(C)(c2ccccc2C)CN3C(C)C)c1=O` (racemic) [Example 19, Racemic 7-(4-Ethyl-3-(hydroxymethyl)-5-oxo-4,5-dihydro-1H-1,2,4-triazol-1-yl)-6-fluoro-1-isopropyl-3-methyl-3-(o-tolyl)-23-dihydroquinolin-4(1H)-one], the values for the IC50 with MOLM-13 cells and against human DHODH were 4 nM and 7.06 nM, respectively.
Take `CCn1c(CO)nn(-c2cc3c(cc2F)C(C)(O)C(c2ccccc2C)CN3C(C)C)c1=O` (racemic) [Example 20, Racemic 4-Ethyl-2-(6-fluoro-4-hydroxy-1-isopropyl-4-methyl-3-(o-tolyl)-1,2,3,4-tetrahydroquinolin-7-yl)-5-(hydroxymethyl)-2,4-dihydro-3H-1,2,4-triazol-3-one]: the IC50 in the test on MOLM-13 cells came to 0.5 nM; against human DHODH it was 0.607 nM.
The corresponding values for `CCn1c(CO)nn(-c2cc3c(cc2F)O[C@@H](c2c(F)cccc2Cl)CN3C(C)C)c1=O` (single isomer, unassigned) [Example 7, (S*)-1-(2-(2-Chloro-6-fluorophenyl)-7-fluoro-4-isopropyl-3,4-dihydro-2H-benzo[b][1,4]oxazin-6-yl)-4-ethyl-3-(hydroxymethyl)-1H-1,2,4-triazol-5(4H)-one] are 0.1 nM and 0.256 nM.
With `CCn1c(CO)nn(-c2cc3c(cc2F)O[C@H](c2c(F)cccc2Cl)CN3C(C)C)c1=O` (single isomer, unassigned) [Example 8, (R*)-1-(2-(2-Chloro-6-fluorophenyl)-7-fluoro-4-isopropyl-3,4-dihydro-2H-benzo[b][1,4]oxazin-6-yl)-4-ethyl-3-(hydroxymethyl)-1H-1,2,4-triazol-5(4H)-one], the IC50 in the test with MOLM-13 cells came to 3 nM; at human DHODH it was 5.5 nM.
For the compound `CCn1c(CO)nn(-c2cc3c(cc2F)[C@@H](O)[C@@H](c2ccccc2C)CN3C(C)C)c1=O` (stereo in doubt) [Example 15, 4-Ethyl-2-((3S*,4S*)-6-fluoro-4-hydroxy-1-isopropyl-3-(o-tolyl)-1,2,3,4-tetrahydroquinolin-7-yl)-5-(hydroxymethyl)-2,4-dihydro-3H-1,2,4-triazol-3-one], the IC50 is 4 nM in the test with MOLM-13 cells and 7.9 nM on human DHODH.
`CCn1c(CO)nn(-c2cc3c(cc2F)[C@H](O)[C@H](c2ccccc2C)CN3C(C)C)c1=O` (stereo in doubt) [Example 16, 4-Ethyl-2-((3R*,4R*)-6-fluoro-4-hydroxy-1-isopropyl-3-(o-tolyl)-1,2,3,4-tetrahydroquinolin-7-yl)-5-(hydroxymethyl)-2,4-dihydro-3H-1,2,4-triazol-3-one]: the IC50 was 2 nM in the test on MOLM-13 cells and 2.24 nM against human DHODH.
The corresponding values for `CCn1c(CO)nn(-c2cc3c(cc2F)[C@H](O)[C@@H](c2ccccc2C)CN3C(C)C)c1=O` (stereo in doubt) [Example 17, 4-Ethyl-2-((3S*,4R*)-6-fluoro-4-hydroxy-1-isopropyl-3-(o-tolyl)-1,2,3,4-tetrahydroquinolin-7-yl)-5-(hydroxymethyl)-2,4-dihydro-3H-1,2,4-triazol-3-one] are ~100 nM and 173 nM.
Take `CCn1c(CO)nn(-c2cc3c(cc2F)[C@@H](O)[C@H](c2ccccc2C)CN3C(C)C)c1=O` (stereo in doubt) [Example 18, 4-Ethyl-2-((3R*,4S*)-6-fluoro-4-hydroxy-1-isopropyl-3-(o-tolyl)-1,2,3,4-tetrahydroquinolin-7-yl)-5-(hydroxymethyl)-2,4-dihydro-3H-1,2,4-triazol-3-one]: in the test on MOLM-13 cells, it took 3 nM to reach half-maximal inhibition (IC50).
For `CCn1c(CO)nn(-c2cc3c(cc2F)N[C@@H](c2ccccc2C)C[C@H]3C(C)C)c1=O` (stereo in doubt) [Example 22, 4-Ethyl-2-((2R*,4S*)-7-fluoro-4-isopropyl-2-(0-tolyl)-1,2,3,4-tetrahydroquinolin-6-yl)-5-(hydroxymethyl)-2,4-dihydro-3H-1,2,4-triazol-3-one], the IC50 is 30 nM in the test on MOLM-13 cells and 113 nM on human DHODH.
`CCn1c(CO)nn(-c2cc3c(cc2F)N[C@H](c2ccccc2C)C[C@@H]3C(C)C)c1=O` (stereo in doubt) [Example 23, 4-Ethyl-2-((2R*,4S*)-7-fluoro-4-isopropyl-2-(o-tolyl)-1,2,3,4-tetrahydroquinolin-6-yl)-5-(hydroxymethyl)-2,4-dihydro-3H-1,2,4-triazol-3-one]: the IC50 with MOLM-13 cells came to 10 nM; on human DHODH it was 49.2 nM.
The corresponding values for `CCn1c(CO)nn(-c2cc3c(cc2F)c(=O)c(-c2cccc(F)c2)cn3C(C)C)c1=O` [Example 1, 7-(4-Ethyl-3-(hydroxymethyl)-5-oxo-4,5-dihydro-1H-1,2,4-triazol-1-yl)-6-fluoro-3-(3-fluorophenyl)-1-isopropylquinolin-4(1H)-one] are 400 nM and 528 nM.
Take `CCn1c(CO)nn(-c2ccc3c(c2)N([C@@H](C)C(F)(F)F)C(=O)C(c2ccccc2SC)N3)c1=O` (stereo partly drawn) [Example 2, 7-(4-Ethyl-3-(hydroxymethyl)-5-oxo-4,5-dihydro-1H-1,2,4-triazol-1-yl)-3-(2-(methylthio)phenyl)-1-((S)-1,1,1-trifluoropropan-2-yl)-3,4-dihydroquinoxalin-2(1H)-one]: the IC50 with MOLM-13 cells is 100 nM; at human DHODH it was 588 nM.
Regarding `CCn1c(CO)nn(-c2ccc3c(c2)N([C@@H](C)C(F)(F)F)C(=O)C(c2c(F)cccc2Cl)N3)c1=O` (stereo partly drawn) [Example 3, 3-(2-Chloro-6-fluorophenyl)-7-(4-ethyl-3-(hydroxymethyl)-5-oxo-4,5-dihydro-1H-1,2,4-triazol-1-yl)-1-((S)-1,1,1-trifluoropropan-2-yl)-3,4-dihydroquinoxalin-2(1H)-one], the values for the IC50 in the test with MOLM-13 cells and at human DHODH were 100 nM and 293 nM, respectively.
For `CCn1c(CO)nn(-c2ccc3c(c2)N([C@@H](C)C(F)(F)F)CC(c2c(F)cccc2Cl)N3)c1=O` (stereo partly drawn) [Example 4, 2-(2-(2-Chloro-6-fluorophenyl)-4-((S)-1,1,1-trifluoropropan-2-yl)-1,2,3,4-tetrahydroquinoxalin-6-yl)-4-ethyl-5-(hydroxymethyl)-2,4-dihydro-3H-1,2,4-triazol-3-one] the same measures were 3 nM and 2.42 nM.
For `CCn1c(CO)nn(-c2cc3c(cc2F)OC(c2c(F)cccc2Cl)C(=O)N3C(C)C)c1=O` (centres unmarked) [Example 5, 2-(2-Chloro-6-fluorophenyl)-6-(4-ethyl-3-(hydroxymethyl)-5-oxo-4,5-dihydro-1H-1,2,4-triazol-1-yl)-7-fluoro-4-isopropyl-2H-benzo[b][1,4]oxazin-3(4H)-one] the same measures were 50 nM and 42.3 nM.
The corresponding values for `CCn1c(CO)nn(-c2cc3c(cc2F)OC(c2c(F)cccc2Cl)CN3C(C)C)c1=O` (centres unmarked) [Example 6, 1-(2-(2-Chloro-6-fluorophenyl)-7-fluoro-4-isopropyl-3,4-dihydro-2H-benzo[b][1,4]oxazin-6-yl)-4-ethyl-3-(hydroxymethyl)-1H-1,2,4-triazol-5(4H)-one] are ~0.3 nM and 0.504 nM.
The compound `CCn1c(CO)nn(-c2cc3c(cc2F)c(=O)c(-c2ccccc2C)cn3C(C)C)c1=O` [Example 10, 7-(4-Ethyl-3-(hydroxymethyl)-5-oxo-4,5-dihydro-TH-1,2,4-triazol-1-yl)-6-fluoro-1-isopropyl-3-(o-tolyl)quinolin-4(1H)-one] came in with an IC50 in the test with MOLM-13 cells of 9 nM.
Same read-out and setting: the figure for `CCn1c(CO)nn(-c2cc3c(cc2F)C(=O)C(c2ccccc2C)CN3C(C)C)c1=O` (centres unmarked) [Example 11, 7-(4-Ethyl-3-(hydroxymethyl)-5-oxo-4,5-dihydro-1H-1,2,4-triazol-1-yl)-6-fluoro-1-isopropyl-3-(o-tolyl)-2,3-dihydroquinolin-4(1H)-one] is 0.5 nM.
The same measure, in the same setting: the value for `CCn1c(CO)nn(-c2cc3c(cc2F)c(=O)c(-c2c(F)cccc2Cl)cn3C(C)C)c1=O` [Example 12, 3-(2-Chloro-6-fluorophenyl)-7-(4-ethyl-3-(hydroxymethyl)-5-oxo-4,5-dihydro-1H-1,2,4-triazol-1-yl)-6-fluoro-1-isopropylquinolin-4(1H)-one] was 30 nM.

The values above are taken from patent publication US20240166622A1, “FLUORINATED QUINOLINE, QUINOXALINE AND BENZO[B][1,4]OXAZINE DERIVATIVES AS DIHYDROOROTATE DEHYDROGENASE (DHODH) INHIBITORS FOR THE TREATMENT OF CANCER, AUTOIMMUNE AND INFLAMMATORY DISEASES” (Janssen Biotech, Inc., priority 2019, published 2024).
